Drawing on patent US10266526B2, “Substituted 1,2,3-triazoles as SMYD inhibitors for treating cancer” (EPIZYME, INC., priority 2014, dated 2019), this text covers IC50 for 19 compounds.

For assay [1], the target named is T1, SMYD3 (Homo sapiens (Human), UniProt Q9H7B4). The assay is described as follows: SMYD3 biochemical assay (SMYD3 enzyme assay on MEKK2 protein substrate, 3H-SAM scintillation proximity assay). To be noted: read-out: SMYD3 Biochem IC50. The method, boiled down: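 Native full-length human SMYD3, expressed in E. coli, was preincubated with compound for 30 min at room temperature in 25 mM Tris-Cl pH 8.0, 1 mM TCEP, 0.005% BSG and 0.005% Tween 20. ³H-SAM plus GST-MEKK2 then started the reaction. It was stopped with unlabeled SAM (100 uM final), and methylated MEKK2 was read by SPA.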
T1 sequence (Q9H7B4 whole entry): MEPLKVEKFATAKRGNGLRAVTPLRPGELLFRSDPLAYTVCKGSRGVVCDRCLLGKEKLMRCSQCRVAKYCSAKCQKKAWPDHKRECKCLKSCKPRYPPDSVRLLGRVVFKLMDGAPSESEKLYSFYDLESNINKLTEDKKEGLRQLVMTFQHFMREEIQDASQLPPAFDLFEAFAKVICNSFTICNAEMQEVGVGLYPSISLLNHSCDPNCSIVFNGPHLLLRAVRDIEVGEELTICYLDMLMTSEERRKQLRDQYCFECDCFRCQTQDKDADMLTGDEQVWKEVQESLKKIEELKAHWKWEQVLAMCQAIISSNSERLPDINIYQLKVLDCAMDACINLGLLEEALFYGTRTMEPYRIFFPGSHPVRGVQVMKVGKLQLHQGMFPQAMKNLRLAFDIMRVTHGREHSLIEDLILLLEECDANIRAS
Background: Scintillation proximity formats need no separation of bound from free tracer.

Assay [2] deals with T1, SMYD3. The assay can be described thus: SMYD3 cell assay (Trimethyl-MEKK2 In-Cell Western in 293T/17 cells transfected with MEKK2-flag and SMYD3). In kind it is cell-based. From the text: Trimethyl-MEKK2-in-Cell Western Assay
MEM/Glutamax medium, Optimem Reduced Serum medium, penicillin-streptomycin, 0.05% trypsin and 1×D-PBS were purchased from Life Technologies, Grand Island, N.Y., USA. PBS-10× was purchased from Ambion, Life Technologies, Grand Island, N.Y., USA. PBS with Tween 20 (PBST (10×)) was purchased from KPL, Gaithersburg, Md., USA. Tet System FBS-approved FBS US Source was purchased from Clontech, Mountain View, Calif., USA. Odyssey blocking buffer, 800CW goat anti-rabbit IgG (H+L) antibody, 680CW Goat anti-mouse IgG (H+L) and Licor Odyssey infrared scanner were purchased from Licor Biosciences, Lincoln, Nebr., USA. Tri-methyl-Lysine [A260]-MEKK2 antibody, MEKK2 and SMYD3 plasmids were made at Epizyme. Anti-flag monoclonal mouse antibody was purchased from Sigma, St. Louis, Mo., USA. Methanol was purchased from VWR, Franklin, Mass., USA. 10% Tween 20 was purchased from KPL, Inc., Gaithersburg, Md., USA. Fugene was purchased from Promega, Madison, Wis., USA. The Biotek ELx405 was purchased from BioTek, Winooski, Vt., USA. The multidrop combi was purchased from Thermo Scientific, Waltham, Mass., USA.
Cell Treatment, in Cell Western (ICW) for Detection of Trimethyl-Lysine-MEKK2 and MEKK2.
Plasmids were prepared for delivery to cells by first mixing 1350 μL Opti-MEM with Fugene (81 μL) in a sterile Eppendorf and incubated for five minutes at room temperature (RT). […] Entire volume of Opti-MEM/Fugene mixture was then added to a microfuge tube containing DNA plasmid, mixed and then incubated ×15 minutes at RT. […] Medium was then removed, and cells were washed once with PBS in the flask. Trypsin 0.05% (3 mL) was added and cells incubated for three minutes. Room temperature MEM+10% Tet system FBS was added and cells were mixed gently, and counted using the Vi-cell. Cells were seeded at 100,000 cells/mL in 50 μL MEM/10% Tet FBS/Pen/Strep to a 384 well black/clear poly-D-lysine coated plate containing test agent diluted in DMSO. The final top concentration of test compound was 40 μM. […] Plates were incubated ×30 minutes at RT in low-airflow area, followed by incubation at 37° C. under 5% CO2 for 24 hours. Medium was aspirated from all wells of assay plates prior to fixation and permeabilization with ice cold (−20° C.) methanol (90 μL/well) for ten minutes. Plates were rinsed with PBS three times on BioTek ELx405. PBS was removed with a final aspiration, and Odyssey blocking buffer (50 μL/well) was added to each well and incubated for one hour at RT. Primary antibody solution was prepared (anti-trimethyl-MEKK2 at 1:600 dilution plus mouse anti-flag antibody at 1:10,000 dilution in diluent (Odyssey Blocking buffer+0.1% Tween 20)) and 20 μL per well was dispensed using the Multidrop Combi. Assay plates were then sealed with foil, and incubated overnight at 4° C. Plates were washed five times with PBS-Tween (1×) on Biotek ELx405 and blotted on paper towel to remove excess reagent.
First, the ratio for each well was determined by:
Each plate included fourteen control wells of DMSO only treatment (Minimum Inhibition) as well as fourteen control wells for maximum inhibition (Background). The average of the ratio values for each control type was calculated and used to determine the percent inhibition for each test well in the plate. Reference compound was serially diluted two-fold in DMSO for a total of nine test concentrations, beginning at 40 μM. Percent inhibition was calculated (below).
Non-linear regression curves were generated to calculate the IC50 and dose-response relationship using triplicate wells per concentration of compound.

Setting [3] is: Table 3A, average of n = 1 to n = 50.
Setting [4] is: Table 3A, average of n = 1 to n = 50, read-out: SMYD3 cell IC50.

pIC50: −log10 of the molar value. Where a name gives a salt, the structure may show the parent alone. Bounds are passed on as bounds.

For the compound `CC(NC(=O)c1cc2c(cc1Cl)NC(=O)C2)C1CCN(C(=O)[C@H](C)N)CC1` (stereo partly drawn) [Cpd. No. 490, N-(1-(1-((S)-2-aminopropanoyl)piperidin-4-yl)ethyl)-6-chloro-2-oxoindoline-5-carboxamide], the figures for the negative logarithm of the IC50 (pIC50) on SMYD3 [1] and at SMYD3 [2] (read-out: SMYD3 Cell IC50) were 6.37 and under 4.40, respectively.
`O=C1Cc2cc(C(=O)N[C@H]3C[C@H]4CC[C@@H](C3)N4S(=O)(=O)N3CCC(NCc4ccccc4)CC3)ccc2N1` [Cpd. No. 587, N-[(1R,3r,5S)-8-[4-(benzylamino)piperidine-1-sulfonyl]-8-azabicyclo[3.2.1]octan-3-yl]-2-oxo-2,3-dihydro-1H-indole-5-carboxamide]: the pIC50 on SMYD3 [1] (setting [3]) is 8.70; on SMYD3 [2] (setting [4]) it was 7.15.
Turning to `O=C1Cc2cc(C(=O)N[C@H]3C[C@H]4CC[C@@H](C3)N4S(=O)(=O)CC3CCN(CCCC(F)(F)F)CC3)c(Cl)cc2N1` [Cpd. No. 595, 6-chloro-2-oxo-N-((1S,3r,5R)-8-((1-(4,4,4-trifluorobutyl)piperidin-4-yl)methylsulfonyl)-8-aza-bicyclo[3.2.1]octan-3-yl)indoline-5-carboxamide], the negative logarithm of the IC50 (pIC50) on SMYD3 [1] (setting [3]) was 8.45; on SMYD3 [2] (setting [4]) it was 7.44.
Consider `O=C(N[C@H]1C[C@H]2CC[C@@H](C1)N2S(=O)(=O)CC1CCNCC1)c1ccc2[nH]c(=O)oc2c1` [Cpd. No. 601, 2-oxo-N-((1R,3r,5SR)-8-(piperidin-4-ylmethylsulfonyl)-8-aza-bicyclo[3.2.1]octan-3-yl)-2,3-dihydrobenzo[d]oxazole-6-carboxamide Hydrochloride], for which the pIC50 at SMYD3 [1] (setting [3]) is 8.28; on SMYD3 [2] (setting [4]), 5.34.
Consider `CCc1cc(C(=O)N[C@H]2C[C@H]3CC[C@@H](C2)N3S(=O)(=O)N2CCC(N)CC2)ns1` [Cpd. No. 610, N-[(1R,3r,5S)-8-(4-aminopiperidine-1-sulfonyl)-8-azabicyclo[3.2.1]octan-3-yl]-5-ethyl-1,2-thiazole-3-carboxamide Hydrochloride], for which the negative-log IC50 (pIC50) on SMYD3 [1] (setting [3]) was 7.62; at SMYD3 [2] (setting [4]), 6.67.
As for `NC1CCC(S(=O)(=O)N2[C@@H]3CC[C@H]2C[C@@H](NC(=O)c2ccc4c(c2)OC(F)(F)O4)C3)CC1` (stereo partly drawn) [Cpd. No. 622, N-((1R,3r,5S)-8-(4-aminocyclohexylsulfonyl)-8-aza-bicyclo[3.2.1]octan-3-yl)-2,2-difluorobenzo[d][1,3]dioxole-5-carboxamide Trifluoroacetate], the pIC50 at SMYD3 [1] (setting [3]) is 6.88; on SMYD3 [2] (setting [4]), 5.97.
With `C[C@H]1Oc2ccc(C(=O)N[C@H]3C[C@H]4CC[C@@H](C3)N4S(=O)(=O)CC3CCNCC3)cc2NC1=O` [Cpd. No. 625, (2R)-2-methyl-3-oxo-N-[(1R,3r,5S)-8-[(piperidin-4-ylmethane)sulfonyl]-8-azabicyclo[3.2.1]octan-3-yl]-3,4-dihydro-2H-1,4-benzoxazine-6-carboxamide Hydrochloride], the results for the negative logarithm of the IC50 (pIC50) at SMYD3 [1] (setting [3]) and on SMYD3 [2] (setting [4]) were 6.73 and at most 5.00, respectively.
Consider `C[C@@H](N)CC(=O)N[C@H]1CC[C@H](NC(=O)c2ccc3c(c2)CC(=O)N3)CC1` [compound 453, N-((1r,4r)-4-((R)-3-aminobutanamido)cyclohexyl)-2-oxoindoline-5-carboxamide], for which the values for the pIC50 at SMYD3 [1] and on SMYD3 [2] (read-out: SMYD3 Cell IC50) were 6.59 and under 4.40, respectively.
On to `NCCC(=O)N[C@H]1CC[C@H](NC(=O)c2cc3c(cc2Cl)NC(=O)C3)CC1` [compound 491, N-((1r,4r)-4-(3-aminopropanamido)cyclohexyl)-6-chloro-2-oxoindoline-5-carboxamide], for which the negative-log IC50 (pIC50) on SMYD3 [1] is 6.82; at SMYD3 [2] (read-out: SMYD3 Cell IC50), under 4.40.
In the case of `N[C@H]1CC[C@H](S(=O)(=O)N2[C@@H]3CC[C@H]2C[C@@H](NC(=O)c2ccc4c(c2)CC(=O)N4)C3)CC1` [compound 575, N-((1R,3R,5S)-8-(((1r,4R)-4-aminocyclohexyl)sulfonyl)-8-azabicyclo[3.2.1]octan-3-yl)-2-oxoindoline-5-carboxamide], the values for the negative logarithm of the IC50 (pIC50) at SMYD3 [1] and on SMYD3 [2] (setting [4]) were 9.36 and 5.66, respectively.
With `NC1CCN(S(=O)(=O)N2[C@@H]3CC[C@H]2C[C@@H](NC(=O)c2cc4c(cc2F)NC(=O)C4)C3)CC1` [compound 576, N-((1R,3r,5S)-8-((4-aminopiperidin-1-yl)sulfonyl)-8-azabicyclo[3.2.1]octan-3-yl)-6-fluoro-2-oxoindoline-5-carboxamide], the pIC50 is 9.31 on SMYD3 [1] (setting [3]) and 6.28 on SMYD3 [2] (setting [4]).
For the compound `CN1CCC(CS(=O)(=O)N2[C@@H]3CC[C@H]2C[C@@H](NC(=O)c2ccc4c(c2)CC(=O)N4)C3)CC1` [compound 577, N-((1R,3r,5S)-8-(((1-methylpiperidin-4-yl)methyl)sulfonyl)-8-azabicyclo[3.2.1]octan-3-yl)-2-oxoindoline-5-carboxamide], the negative logarithm of the IC50 (pIC50) on SMYD3 [1] is 9.17; at SMYD3 [2] (setting [4]), 6.32.
Consider `NC1CCN(S(=O)(=O)N2[C@@H]3CC[C@H]2C[C@@H](NC(=O)c2ccc4c(c2)CC(=O)N4)C3)CC1` [compound 578, N-((1R,3r,5S)-8-((4-aminopiperidin-1-yl)sulfonyl)-8-azabicyclo[3.2.1]octan-3-yl)-2-oxoindoline-5-carboxamide], for which the pIC50 was 9.17 at SMYD3 [1] and 6.07 on SMYD3 [2] (setting [4]).
For the compound `NC1CCN(S(=O)(=O)N2[C@@H]3CC[C@H]2C[C@@H](NC(=O)c2cc4c(cc2Cl)NC(=O)C4)C3)CC1` [compound 579, N-((1R,3r,5S)-8-((4-aminopiperidin-1-yl)sulfonyl)-8-azabicyclo[3.2.1]octan-3-yl)-6-chloro-2-oxoindoline-5-carboxamide], the pIC50 on SMYD3 [1] (setting [3]) was 9.09; on SMYD3 [2] (setting [4]), 5.95.
For the compound `C[C@H]1C[C@@H](NC(=O)c2ccc3c(c2)CC(=O)N3)CCN1S(=O)(=O)N1CCC(N)CC1` [compound 580, N-((2S,4S)-1-((4-aminopiperidin-1-yl)sulfonyl)-2-methylpiperidin-4-yl)-2-oxoindoline-5-carboxamide], the pIC50 on SMYD3 [1] (setting [3]) was 9.05; on SMYD3 [2] (setting [4]) it was 5.79.
In the case of `O=C1Cc2cc(C(=O)N[C@H]3C[C@H]4CC[C@@H](C3)N4S(=O)(=O)CC3CCN(CCCO)CC3)ccc2N1` [compound 581, N-((1R,3r,5S)-8-(((1-(3-hydroxypropyl)piperidin-4-yl)methyl)sulfonyl)-8-azabicyclo[3.2.1]octan-3-yl)-2-oxoindoline-5-carboxamide], the negative-log IC50 (pIC50) at SMYD3 [1] (setting [3]) was 9.02; on SMYD3 [2] (setting [4]), 5.78.
For the compound `C[C@H]1C[C@@H](NC(=O)c2cc3c(cc2Cl)NC(=O)C3)CCN1S(=O)(=O)N1CCC(N)CC1` [compound 582, N-((2S,4S)-1-((4-aminopiperidin-1-yl)sulfonyl)-2-methylpiperidin-4-yl)-6-chloro-2-oxoindoline-5-carboxamide], the figures for the pIC50 at SMYD3 [1] (setting [3]) and at SMYD3 [2] (setting [4]) were 9.01 and 6.09, respectively.
Take `N[C@H]1CC[C@H](S(=O)(=O)N2[C@@H]3CC[C@H]2C[C@@H](NC(=O)c2cc4c(cc2Cl)NC(=O)C4)C3)CC1` [compound 583, N-((1R,3R,5S)-8-(((1r,4R)-4-aminocyclohexyl)sulfonyl)-8-azabicyclo[3.2.1]octan-3-yl)-6-chloro-2-oxoindoline-5-carboxamide]: the figures for the negative logarithm of the IC50 (pIC50) at SMYD3 [1] (setting [3]) and on SMYD3 [2] (setting [4]) were 8.96 and 5.82, respectively.
Take `C[C@H]1CC(NC(=O)c2cc3c(cc2Cl)NC(=O)C3)CCN1C(=O)[C@H]1CC[C@H](N)CC1` (stereo partly drawn) [compound 640, N-((2S)-1-((1r,4S)-4-aminocyclohexane-1-carbonyl)-2-methylpiperidin-4-yl)-6-chloro-2-oxoindoline-5-carboxamide]: the negative-log IC50 (pIC50) on SMYD3 [2] (setting [4]) is at most 5.00.

In general, pIC50 refers to −log10 of the IC50, conventionally taken in molar units.
